Earlier results as cited in article PMC4474859 (PLoS ONE, 2015).

What was measured:
MmImpα = settings: in words
Source text: (§1) Affinity assays between NLS peptides and Impα proteins have been performed based in indirect affinity measurements, using Surface Plasmon Resonance (SPR), and ITC [19, 38, 55]. Indirect affinity measurements between NLSs and Impα proteins reported dissociation constants in the nM range and permitted the comparison among these molecules. SPR experiments was only able to estimate the peptide-protein affinity in the μM range which was lately confirmed by ITC experiments.

Impα/Impβ complex = settings: full length protein vs NLS peptide
Source text: as §1

Row | Substance | binding site on MmImpα (MmImpα) | increase in affinity compared to just nucleoplasmin NLS peptide (Impα/Impβ complex)
1 | GSIIRKWN [hPLSCR4 NLS peptide] | binds only the minor site of MmImpα | 
2 | full length nucleoplasmin protein: full length nucleoplasmin protein binds to Impα/Impβ complex |  | 2 fold
